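These data come from cells grown in 96-well plates and exposed to compound for 48 hours at five concentrations. Abbreviation: GI50, concentration required for 50% inhibition of growth.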 Calls of active or inactive are those of the source. Rule as the data show it: active = GI50 up to about 1.1 µM and inactive = higher.
Legend:
Experiment in all cases: DTP human tumour cell line panel, 48 h
[1] = system: A498
[2] = system: BT-549
[3] = system: COLO 205
[4] = system: DU-145
[5] = system: HCT-116
[6] = system: HOP-92
[7] = system: Hs-578T
[8] = system: IGROV-1
[9] = system: Malme-3M
[10] = system: NCI-H522
[11] = system: OVCAR-5
[12] = system: SK-MEL-2
[13] = system: SNB-19
[14] = system: CAKI-1
[15] = system: K562
[16] = system: OVCAR-3
[17] = system: SK-MEL-28
[18] = system: SR
[19] = system: MDA-N

| Compound | GI50 [1] | GI50 [2] | GI50 [3] | GI50 [4] | GI50 [5] | GI50 [6] | GI50 [7] | GI50 [8] | GI50 [9] | GI50 [10] | GI50 [11] | GI50 [12] | GI50 [13] | GI50 [14] | GI50 [15] | GI50 [16] | GI50 [17] | GI50 [18] | GI50 [19] |
| --- | --- | --- | --- | --- | --- | --- | --- | --- | --- | --- | --- | --- | --- | --- | --- | --- | --- | --- | --- |
| CCCCCCC(C)CC(CCCCCC)NCCOC(=O)c1ccc([N+](=O)[O-])cc1 (stereo not given) | 18.4 µM (inactive) | 15.4 µM (inactive) | 3.18 µM (inactive) | 12.2 µM (inactive) | 8.18 µM (inactive) | 5.82 µM (inactive) | 17.2 µM (inactive) | 12.3 µM (inactive) | 11.1 µM (inactive) | 12.1 µM (inactive) | 18.5 µM (inactive) | 14.1 µM (inactive) | 15.6 µM (inactive) | – | – | – | – | – | – |
| CSc1nc(O)c(C#N)c(-c2ccccc2)n1 | > 100 µM (inactive) | > 100 µM (inactive) | > 100 µM (inactive) | > 100 µM (inactive) | > 100 µM (inactive) | 97.5 µM (inactive) | > 100 µM (inactive) | > 100 µM (inactive) | – | 53.1 µM (inactive) | > 100 µM (inactive) | > 100 µM (inactive) | > 100 µM (inactive) | > 100 µM (inactive) | > 100 µM (inactive) | > 100 µM (inactive) | > 100 µM (inactive) | – | – |
| COC(=O)/C=C/C1C(C(=O)OC)C2(C(=O)OC)CCC1(C(=O)OC)N2 (stereo not given) | > 100 µM (inactive) | – | > 100 µM (inactive) | – | > 100 µM (inactive) | > 100 µM (inactive) | – | > 100 µM (inactive) | > 100 µM (inactive) | > 100 µM (inactive) | > 100 µM (inactive) | > 100 µM (inactive) | > 100 µM (inactive) | > 100 µM (inactive) | > 100 µM (inactive) | > 100 µM (inactive) | – | > 100 µM (inactive) | – |
| c1ccc2c(Cc3nnc4sc(SSc5nn6c(Cc7c[nH]c8ccccc78)nnc6s5)nn34)c[nH]c2c1 | 11.3 µM (inactive) | – | 21.1 µM (inactive) | 26.3 µM (inactive) | 16 µM (inactive) | 31 µM (inactive) | 23.8 µM (inactive) | 2.99 µM (inactive) | 31.3 µM (inactive) | 17.9 µM (inactive) | 26.2 µM (inactive) | – | 31 µM (inactive) | 18.7 µM (inactive) | 17.4 µM (inactive) | 11.8 µM (inactive) | 33.5 µM (inactive) | 18.1 µM (inactive) | – |
| CC1(C)CC(=O)C2=C(C1)N(c1ccccc1)C1(O)C=CC(O)=C3C(=O)c4ccccc4C(=O)C321 (stereo not given) | – | 26.9 µM (inactive) | 33.6 µM (inactive) | 74 µM (inactive) | 61.4 µM (inactive) | 24.1 µM (inactive) | – | 26 µM (inactive) | 26.7 µM (inactive) | 20.3 µM (inactive) | 42.8 µM (inactive) | 27 µM (inactive) | 21.7 µM (inactive) | 26.2 µM (inactive) | 14 µM (inactive) | 37.8 µM (inactive) | 17.8 µM (inactive) | 8.57 µM (inactive) | – |
| CCO/C=N\C1=C(C#N)SC2=N/C(=C\c3ccco3)C(=O)N21 | > 100 µM (inactive) | – | > 100 µM (inactive) | > 100 µM (inactive) | > 100 µM (inactive) | > 100 µM (inactive) | > 100 µM (inactive) | > 100 µM (inactive) | > 100 µM (inactive) | > 100 µM (inactive) | > 100 µM (inactive) | > 100 µM (inactive) | > 100 µM (inactive) | > 100 µM (inactive) | > 100 µM (inactive) | > 100 µM (inactive) | > 100 µM (inactive) | > 100 µM (inactive) | > 100 µM (inactive) |
| CCOC(CNc1nn2c(C)nnc2s1)OCC | > 100 µM (inactive) | – | > 100 µM (inactive) | > 100 µM (inactive) | > 100 µM (inactive) | > 100 µM (inactive) | > 100 µM (inactive) | > 100 µM (inactive) | > 100 µM (inactive) | > 100 µM (inactive) | > 100 µM (inactive) | > 100 µM (inactive) | > 100 µM (inactive) | > 100 µM (inactive) | > 100 µM (inactive) | > 100 µM (inactive) | > 100 µM (inactive) | > 100 µM (inactive) | > 100 µM (inactive) |
| Cc1nn(CNc2ccc(F)c(Cl)c2)c(=S)n1/N=C/c1ccc(-c2ccc(Cl)cc2Cl)o1 | 15.1 µM (inactive) | – | – | 16.9 µM (inactive) | 15.7 µM (inactive) | – | 15.5 µM (inactive) | 16.7 µM (inactive) | – | 14.4 µM (inactive) | 19.1 µM (inactive) | 22.6 µM (inactive) | – | 16.8 µM (inactive) | 1.49 µM (inactive) | 17.3 µM (inactive) | 19.7 µM (inactive) | 1.4 µM (inactive) | 17.7 µM (inactive) |
| COc1cc(/C=C2\CCC(C)c3c2nc(N)c(C#N)c3-c2cc(OC)c(OC)c(OC)c2)cc(OC)c1OC (stereo not given) | > 100 µM (inactive) | – | – | 55.2 µM (inactive) | > 100 µM (inactive) | 67.5 µM (inactive) | 18.7 µM (inactive) | 0.984 µM (active) | – | – | > 100 µM (inactive) | > 100 µM (inactive) | 54 µM (inactive) | > 100 µM (inactive) | 28.6 µM (inactive) | – | > 100 µM (inactive) | 25.8 µM (inactive) | > 100 µM (inactive) |
| CCCCCCCCNC(=O)SCCCC | 45.5 µM (inactive) | – | 45.2 µM (inactive) | – | – | 17.6 µM (inactive) | – | 46.5 µM (inactive) | 23.1 µM (inactive) | 24.4 µM (inactive) | 37.2 µM (inactive) | 20.9 µM (inactive) | 27.5 µM (inactive) | 21.3 µM (inactive) | 34.4 µM (inactive) | 49.5 µM (inactive) | 38.2 µM (inactive) | – | – |
| CCC(C(=O)c1ccccc1)C(CCCC(=O)Nc1c(C)cccc1C)N=O (stereo not given) | > 100 µM (inactive) | – | > 100 µM (inactive) | – | > 100 µM (inactive) | > 100 µM (inactive) | – | > 100 µM (inactive) | > 100 µM (inactive) | > 100 µM (inactive) | > 100 µM (inactive) | > 100 µM (inactive) | > 100 µM (inactive) | > 100 µM (inactive) | > 100 µM (inactive) | > 100 µM (inactive) | > 100 µM (inactive) | > 100 µM (inactive) | – |
| O=c1[nH]c2c3ccccc3ccc2c2cc3c(cc12)OCO3 | – | – | > 100 µM (inactive) | – | 83.2 µM (inactive) | – | – | > 100 µM (inactive) | > 100 µM (inactive) | 42.5 µM (inactive) | > 100 µM (inactive) | > 100 µM (inactive) | > 100 µM (inactive) | 95.9 µM (inactive) | 38.5 µM (inactive) | > 100 µM (inactive) | > 100 µM (inactive) | – | – |
| NS(=O)(=O)c1nnc(NS(=O)(=O)C(F)(F)F)s1 | > 100 µM (inactive) | > 100 µM (inactive) | > 100 µM (inactive) | > 100 µM (inactive) | > 100 µM (inactive) | > 100 µM (inactive) | – | – | > 100 µM (inactive) | > 100 µM (inactive) | > 100 µM (inactive) | > 100 µM (inactive) | > 100 µM (inactive) | > 100 µM (inactive) | > 100 µM (inactive) | > 100 µM (inactive) | > 100 µM (inactive) | 46.7 µM (inactive) | – |
| CC1CN=C(N(C(=O)Nc2ccccc2)c2ccc(Cl)c(Cl)c2)S1 (stereo not given) | 14.3 µM (inactive) | – | > 10 µM (inactive) | 45.8 µM (inactive) | 23.1 µM (inactive) | 17.1 µM (inactive) | 65 µM (inactive) | 41.6 µM (inactive) | 38 µM (inactive) | – | 34.1 µM (inactive) | 18.9 µM (inactive) | 70.6 µM (inactive) | 27.9 µM (inactive) | > 10 µM (inactive) | > 10 µM (inactive) | 40.6 µM (inactive) | 24.4 µM (inactive) | > 10 µM (inactive) |
| CC1(C)CC[C@]2(C)CC=C3[C@]4(C)CC[C@H]5C(C)(C)C(=O)CC[C@]5(C)[C@H]4CC[C@@]3(C)[C@H]2C1 | > 100 µM (inactive) | – | > 100 µM (inactive) | > 100 µM (inactive) | > 100 µM (inactive) | > 100 µM (inactive) | > 100 µM (inactive) | > 100 µM (inactive) | > 100 µM (inactive) | > 100 µM (inactive) | > 100 µM (inactive) | > 100 µM (inactive) | > 100 µM (inactive) | > 100 µM (inactive) | – | > 100 µM (inactive) | > 100 µM (inactive) | > 100 µM (inactive) | > 100 µM (inactive) |
| CC[S+]([O-])C(=O)N(O)c1ccc(Cl)cc1 (stereo not given) | 56.4 µM (inactive) | – | 36 µM (inactive) | > 100 µM (inactive) | 24.4 µM (inactive) | 29.9 µM (inactive) | 41.2 µM (inactive) | – | – | – | 17.7 µM (inactive) | 15.3 µM (inactive) | 60.7 µM (inactive) | 17.7 µM (inactive) | 16.2 µM (inactive) | 31.6 µM (inactive) | 17.4 µM (inactive) | – | 20 µM (inactive) |
| CC(C)C(=O)/C=C/c1ccccc1 | > 100 µM (inactive) | – | > 100 µM (inactive) | – | 67.3 µM (inactive) | > 100 µM (inactive) | – | > 100 µM (inactive) | – | 31 µM (inactive) | > 100 µM (inactive) | > 100 µM (inactive) | > 100 µM (inactive) | – | 33.7 µM (inactive) | 31 µM (inactive) | > 100 µM (inactive) | 31.2 µM (inactive) | – |
| N#C/C(=C\c1ccc(O)cc1O)C(N)=O | 65 µM (inactive) | – | 12.9 µM (inactive) | – | 94.2 µM (inactive) | 46.1 µM (inactive) | – | > 100 µM (inactive) | 90.8 µM (inactive) | 28.3 µM (inactive) | > 100 µM (inactive) | 98.4 µM (inactive) | 87.9 µM (inactive) | 58.1 µM (inactive) | > 100 µM (inactive) | > 100 µM (inactive) | 93.3 µM (inactive) | – | – |

Source: ChEMBL document CHEMBL1201862, “PubChem BioAssay data set” (2004)
